In patent publication US20230053540A1, “TREATMENT OF LIVER INJURY” (Massachusetts Institute of Technology, priority 2019, published 2023):

System: hepatocytes
Assay: Seq-Well scRNA-Seq of hepatocytes after APAP overdose (signature scores, DEG vs untreated)
Format: in vivo, mouse

CC(=O)Nc1ccc(O)cc1 [APAP, acetaminophen]
Rpl34 logFC (APAP vs UT, A24logFC): −0.2976 | Rps24 logFC (APAP vs UT, A24logFC): −0.2625 | Rraga logFC (APAP vs UT, A24logFC): 0.2626 | Rsl1d1 logFC (APAP vs UT, A24logFC): 0.3461 | Selo logFC (APAP vs UT, A24logFC): −0.2574 | Sema4g logFC (APAP vs UT, A24logFC): −0.2505 | Serbp1 logFC (APAP vs UT, A24logFC): 0.3227 | Sf3b1 logFC (APAP vs UT, A24logFC): 0.2888 | Sigmar1 logFC (APAP vs UT, A24logFC): −0.3055 | Slc16a2 logFC (APAP vs UT, A24logFC): −0.252 | Slc16a10 logFC (APAP vs UT, A24logFC): −0.2548 | Slc25a51 logFC (APAP vs UT, A24logFC): 0.264 | Slc26a1 logFC (APAP vs UT, A24logFC): −0.2817 | Slc30a1 logFC (APAP vs UT, A24logFC): 0.2506 | Slc35d1 logFC (APAP vs UT, A24logFC): 0.3094 | Smoc1 logFC (APAP vs UT, A24logFC): 0.2616 | Spag9 logFC (APAP vs UT, A24logFC): 0.3188 | Spcs1 logFC (APAP vs UT, A24logFC): −0.2629 | Sptan1 logFC (APAP vs UT, A24logFC): 0.3127 | Srd5a1 logFC (APAP vs UT, A24logFC): −0.2773 | Srrm2 logFC (APAP vs UT, A24logFC): 0.3282 | St3gal4 logFC (APAP vs UT, A24logFC): 0.275 | Swi5 logFC (APAP vs UT, A24logFC): −0.2621 | Tab2 logFC (APAP vs UT, A24logFC): 0.3484 | Tbca logFC (APAP vs UT, A24logFC): −0.2726 | Tln1 logFC (APAP vs UT, A24logFC): 0.321 | Tmem86b logFC (APAP vs UT, A24logFC): −0.2582 | Tmem150a logFC (APAP vs UT, A24logFC): −0.2535 | Tmem242 logFC (APAP vs UT, A24logFC): −0.2725 | Tpi1 logFC (APAP vs UT, A24logFC): −0.2616 | Trip11 logFC (APAP vs UT, A24logFC): 0.3479 | Ubr5 logFC (APAP vs UT, A24logFC): 0.3057 | Ugt3a2 logFC (APAP vs UT, A24logFC): −0.2586 | Usp7 logFC (APAP vs UT, A24logFC): 0.2873 | Usp34 logFC (APAP vs UT, A24logFC): 0.2859 | Xrn2 logFC (APAP vs UT, A24logFC): 0.2985 | Ythdc1 logFC (APAP vs UT, A24logFC): 0.2641 | Zfand5 logFC (APAP vs UT, A24logFC): 0.2882 | Zfp106 logFC (APAP vs UT, A24logFC): 0.3369 | Zfp259 logFC (APAP vs UT, A24logFC): 0.2556 | 2810007J24Rik avg_logFC (APAP vs. UT): −0.2871 | 2810007J24Rik pct.1 (APAP vs. UT): 0.909 | Aadac avg_logFC (APAP vs. UT): −0.3243 | Aadac pct.1 (APAP vs. UT): 0.849 | Abca6 avg_logFC (APAP vs. UT): 0.2637 | Abca6 pct.1 (APAP vs. UT): 0.679 | Abcb4 avg_logFC (APAP vs. UT): 0.2759 | Abcb4 pct.1 (APAP vs. UT): 0.78 | Acaa1b avg_logFC (APAP vs. UT): −0.3158 | Acaa1b pct.1 (APAP vs. UT): 0.883 | Adh1 avg_logFC (APAP vs. UT): −0.3122 | Adh1 pct.1 (APAP vs. UT): 0.941 | Agpat6 avg_logFC (APAP vs. UT): 0.2706 | Agpat6 pct.1 (APAP vs. UT): 0.695 | Agt avg_logFC (APAP vs. UT): 0.3007 | Agt pct.1 (APAP vs. UT): 0.859 | Akr1c6 avg_logFC (APAP vs. UT): −0.5047 | Akr1c6 pct.1 (APAP vs. UT): 0.92 | Aldh9a1 avg_logFC (APAP vs. UT): 0.2715 | Aldh9a1 pct.1 (APAP vs. UT): 0.836 | Aldob avg_logFC (APAP vs. UT): 0.2576 | Aldob pct.1 (APAP vs. UT): 0.997 | Angptl3 avg_logFC (APAP vs. UT): 0.414 | Angptl3 pct.1 (APAP vs. UT): 0.961 | Apoa4 avg_logFC (APAP vs. UT): 0.5984 | Apoa4 pct.1 (APAP vs. UT): 0.574 | Apob avg_logFC (APAP vs. UT): 0.2678 | Apob pct.1 (APAP vs. UT): 0.989 | Apoc2 avg_logFC (APAP vs. UT): 0.5107 | Apoc2 pct.1 (APAP vs. UT): 0.851 | Arhgap5 avg_logFC (APAP vs. UT): 0.2875 | Arhgap5 pct.1 (APAP vs. UT): 0.647 | Arhgef12 avg_logFC (APAP vs. UT): 0.2783 | Arhgef12 pct.1 (APAP vs. UT): 0.597 | Asl avg_logFC (APAP vs. UT): 0.3374 | Asl pct.1 (APAP vs. UT): 0.859 | Atp1a1 avg_logFC (APAP vs. UT): 0.2871 | Atp1a1 pct.1 (APAP vs. UT): 0.623 | Atp2a2 avg_logFC (APAP vs. UT): 0.3031 | Atp2a2 pct.1 (APAP vs. UT): 0.666 | Bach1 avg_logFC (APAP vs. UT): 0.2613 | Bach1 pct.1 (APAP vs. UT): 0.356 | Bche avg_logFC (APAP vs. UT): 0.2566 | Bche pct.1 (APAP vs. UT): 0.562 | Brd2 avg_logFC (APAP vs. UT): 0.2856 | Brd2 pct.1 (APAP vs. UT): 0.59 | Btg2 avg_logFC (APAP vs. UT): 0.2635 | Btg2 pct.1 (APAP vs. UT): 0.401 | C8g avg_logFC (APAP vs. UT): −0.2582 | C8g pct.1 (APAP vs. UT): 0.859 | Car3 avg_logFC (APAP vs. UT): −0.3762 | Car3 pct.1 (APAP vs. UT): 0.956 | Cdo1 avg_logFC (APAP vs. UT): 0.2665 | Cdo1 pct.1 (APAP vs. UT): 0.964 | Ces3a avg_logFC (APAP vs. UT): −0.3174 | Ces3a pct.1 (APAP vs. UT): 0.93 | Ces3b avg_logFC (APAP vs. UT): −0.284 | Ces3b pct.1 (APAP vs. UT): 0.727 | Chchd2 avg_logFC (APAP vs. UT): −0.2575 | Chchd2 pct.1 (APAP vs. UT): 0.874 | Chchd10 avg_logFC (APAP vs. UT): 0.3833 | Chchd10 pct.1 (APAP vs. UT): 0.925 | Chka avg_logFC (APAP vs. UT): 0.2892 | Chka pct.1 (APAP vs. UT): 0.312 | Cite avg_logFC (APAP vs. UT): 0.3077 | Cite pct.1 (APAP vs. UT): 0.602 | Cml1 avg_logFC (APAP vs. UT): −0.2953 | Cml1 pct.1 (APAP vs. UT): 0.709 | Cox4i1 avg_logFC (APAP vs. UT): −0.2627 | Cox4i1 pct.1 (APAP vs. UT): 0.941 | Cox6c avg_logFC (APAP vs. UT): −0.3432 | Cox6c pct.1 (APAP vs. UT): 0.808 | Cox7a2 avg_logFC (APAP vs. UT): −0.2511 | Cox7a2 pct.1 (APAP vs. UT): 0.722 | Cp avg_logFC (APAP vs. UT): 0.3758 | Cp pct.1 (APAP vs. UT): 0.965 | Cpt1a avg_logFC (APAP vs. UT): 0.285 | Cpt1a pct.1 (APAP vs. UT): 0.775 | Creld2 avg_logFC (APAP vs. UT): 0.2626 | Creld2 pct.1 (APAP vs. UT): 0.487 | Csde1 avg_logFC (APAP vs. UT): 0.2739 | Csde1 pct.1 (APAP vs. UT): 0.749 | Cyb5 avg_logFC (APAP vs. UT): −0.2845 | Cyb5 pct.1 (APAP vs. UT): 0.972 | Cyp4a10 avg_logFC (APAP vs. UT): 0.7159 | Cyp4a10 pct.1 (APAP vs. UT): 0.727 | Cyp4a14 avg_logFC (APAP vs. UT): 1.281 | Cyp4a14 pct.1 (APAP vs. UT): 0.714 | D17Wsu92e avg_logFC (APAP vs. UT): 0.2809 | D17Wsu92e pct.1 (APAP vs. UT): 0.736 | Ddx3x avg_logFC (APAP vs. UT): 0.2753 | Ddx3x pct.1 (APAP vs. UT): 0.689 | Ddx21 avg_logFC (APAP vs. UT): 0.2576 | Dennd5b avg_logFC (APAP vs. UT): 0.2562 | Dennd5b pct.1 (APAP vs. UT): 0.55 | Dhcr24 avg_logFC (APAP vs. UT): 0.3629 | Dhcr24 pct.1 (APAP vs. UT): 0.883 | Eif1a avg_logFC (APAP vs. UT): 0.2667 | Eif1a pct.1 (APAP vs. UT): 0.492 | Eif4g2 avg_logFC (APAP vs. UT): 0.3407 | Eif4g2 pct.1 (APAP vs. UT): 0.824 | Ell2 avg_logFC (APAP vs. UT): 0.2572 | Ell2 pct.1 (APAP vs. UT): 0.609 | Elovl3 avg_logFC (APAP vs. UT): −0.5221 | Elovl3 pct.1 (APAP vs. UT): 0.65 | Epb4.1 avg_logFC (APAP vs. UT): 0.2567 | Epb4.1 pct.1 (APAP vs. UT): 0.527 | Etf1 pct.1 (APAP vs. UT): 0.61 | Etnppl avg_logFC (APAP vs. UT): 0.2637 | Etnppl pct.1 (APAP vs. UT): 0.647 | Fabp1 avg_logFC (APAP vs. UT): −0.3078 | Fabp1 pct.1 (APAP vs. UT): 0.992 | Fam134b avg_logFC (APAP vs. UT): 0.2987 | Fam134b pct.1 (APAP vs. UT): 0.589 | Fga avg_logFC (APAP vs. UT): 0.4335 | Fga pct.1 (APAP vs. UT): 0.996 | Fgb avg_logFC (APAP vs. UT): 0.3905 | Fgb pct.1 (APAP vs. UT): 0.999 | Fgg avg_logFC (APAP vs. UT): 0.3391 | Fgg pct.1 (APAP vs. UT): 0.997 | Fgl1 avg_logFC (APAP vs. UT): 0.3611 | Fgl1 pct.1 (APAP vs. UT): 0.861 | Fos avg_logFC (APAP vs. UT): 0.2633 | Fos pct.1 (APAP vs. UT): 0.609 | Gadd45g avg_logFC (APAP vs. UT): −0.3405 | Gadd45g pct.1 (APAP vs. UT): 0.503 | Gclc avg_logFC (APAP vs. UT): 0.671 | Gclc pct.1 (APAP vs. UT): 0.839 | Gfra1 avg_logFC (APAP vs. UT): 0.2536 | Gfra1 pct.1 (APAP vs. UT): 0.676 | Gjb2 avg_logFC (APAP vs. UT): 0.2803 | Gjb2 pct.1 (APAP vs. UT): 0.725 | Gm2a avg_logFC (APAP vs. UT): 0.2814 | Gm2a pct.1 (APAP vs. UT): 0.599 | Gm13775 avg_logFC (APAP vs. UT): −1.061 | Gm13775 pct.1 (APAP vs. UT): 0.306 | Gm15564 avg_logFC (APAP vs. UT): 1.171 | Gm15564 pct.1 (APAP vs. UT): 0.981 | Gm23935 avg_logFC (APAP vs. UT): 0.5701 | Gm23935 pct.1 (APAP vs. UT): 0.954 | Gm24601 avg_logFC (APAP vs. UT): 0.4962 | Gm24601 pct.1 (APAP vs. UT): 0.198 | Gm26917 avg_logFC (APAP vs. UT): 0.395 | Gm26917 pct.1 (APAP vs. UT): 0.253 | Gm26924 avg_logFC (APAP vs. UT): 0.8508 | Gm26924 pct.1 (APAP vs. UT): 1 | Grip2 avg_logFC (APAP vs. UT): 0.3797 | Grip2 pct.1 (APAP vs. UT): 0.158 | Grn avg_logFC (APAP vs. UT): 0.3692 | Grn pct.1 (APAP vs. UT): 0.62 | Gstm3 avg_logFC (APAP vs. UT): −0.4736 | Gstm3 pct.1 (APAP vs. UT): 0.269 | Gyk avg_logFC (APAP vs. UT): 0.3144 | Gyk pct.1 (APAP vs. UT): 0.583 | Hbb-bs avg_logFC (APAP vs. UT): 1.332 | Hbb-bs pct.1 (APAP vs. UT): 0.125 | Hbb-bt avg_logFC (APAP vs. UT): 0.4482 | Hbb-bt pct.1 (APAP vs. UT): 0.052 | Hdlbp avg_logFC (APAP vs. UT): 0.274 | Hdlbp pct.1 (APAP vs. UT): 0.828 | Herpud1 avg_logFC (APAP vs. UT): 0.2973 | Herpud1 pct.1 (APAP vs. UT): 0.842
